Source: patent publication EP3572468B1, “CYANINE DYES AND THEIR USAGE FOR IN VIVO STAINING OF MICROORGANISMS” (PHILIPPS-UNIVERSITÄT MARBURG, priority 2018, dated 2019)

Experiments:
[1] = tested on: dsDNACT; assay: UV-Vis absorbance titration with dsDNACT; type: binding, calf; settings: addition of dsDNACT (< 2.5 eq of DNA); 12.3 µM dye in 10 mM Tris pH 7.6 and 50 mM KCI
Protocol: UV-Vis titration measurements were performed on a Jasco V-650 UV-Vis spectrophotometer equipped with a Jasco PAC-743 temperature controlled cell holder and a Julabo F250 cooling system to maintain the temperature constant at 20°C during the measurements. UV-Vis titration measurements were performed in a 500 µL quarz cuvette with a pathlength of 1 cm at 20°C. The absorbance spectra were recorded from 400 nm to 800 nm.
UV-Vis titration measurements were performed at a concentration of 12.3 µM of the dye in 10 mM Tris pH 7.6 and 50 mM KCI. Increasing aliquots of a 1.54 mM and 15.4 mM stock solutions of dsDNACT were successively added and the absorbance spectra were recorded in a range from 400-800 nm after 1 min of each addition. Three independent measurements were carried out. The presented spectra are the resulting mean of the three independent measurements.

[2] = target: dsDNAhAT (double-stranded DNA hairpin with the consensus sequence ATTA); assay: Fluorescence titration with hairpin dsDNAhAT, binding affinity by DynaFit; settings: 1 µM dye in 10 mM Tris pH 7.6 and 50 mM KCI, 20°C, emission at 647 nm, 1:1 binding model, read-out: binding affinity (KD, apparent dissociation constant)
Protocol: Fluorescence measurements and tritations were performed on a Jasco FP-6500 spectrofluorometer equipped with a Thermo Haake WKL 26 water recirculator at 20°C. Unless otherwise noted, a 1400 µL fluorescence cuvette of HellmaAnalytics (104F-QS) was used and the measurements were performed with the following settings: increment: 1.0 nm; integration time: 0.2 s; speed: 500 nm/min; sensitivity: medium; excitation slit width: 3 nm; emission slit width: 3 nm; excitation wavelength 610 nm. The emission spectra were recorded from 625 to 750 nm at 20°C. From all spectra, the corresponding background signal was substracted. […] Table 1: Binding sites and sequences of DNA hairpins, which were used for fluorescence titrations experiments.
All fluorescence titrations followed the same procedure: to 1 mL of 1 µM solution of corresponding cyanine dye derivative in 10 mM Tris pH 7.6 and 50 mM KCI aliquots of a stock solution of the corresponding annealed DNA (dsDNAhAT and dsDNAhGC = 435 µM; dsDNACT = 0.65 mM) were successively added and the fluorescence spectra were recorded in a range from 625-750 nm after 1 min of each addition. […] The fluorescence emission plotted is the resulting mean of the three independent measurements. […]
All binding affinities were determined by fitting the obtained experimental data in the DynaFit 4.0 software. […]

SMILES: CC[n+]1ccc(/C=C/C=C2\Sc3ccccc3N2CCCCCCn2cc(CN)nn2)c2ccccc21.[I-] [6-TramTO-3, 4-((1E,3Z)-3-(3-(6-(4-(aminomethyl)-1H-1,2,3-triazol-1-yl)hexyl)benzo[d]thiazol-2(3H)-ylidene)prop-1-en-1-yl)-1-ethylquinolin-1-ium iodide]
- blue shift of the absorption maximum [1]: 102 nm
- Kd [2]: 114 ± 30 nM
